Data as given in the supplement of paper PMC10627819.

Columns and labels:
B. subtilis 168 [1] = test: fitness (endpoint OD595 vs no drug) (fraction); higher = more growth
In short: (§1)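 With the first reading as background, OD595 was measured every 30 min for 14 h in 384-well plates kept at 37 °C and inoculated at OD595 0.01. TSB, LB Lennox or CY was the medium. Fitness is the optical density at the transition into stationary phase divided by the robust mean of no-drug control wells, with a cap of 1.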

S. aureus Newman [2] = test: as above
In short: as §1

S. pneumoniae D39V [3] = test: as above
In short: as §1

B. subtilis 168 [4] = test: Bliss interaction score (quartile over a dose matrix) (fitness difference); higher = more antagonism (negative = synergy)
In short: (§2)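 Fitness was derived from optical density at entry into stationary phase, divided by the robust mean of the no-drug wells on the same plate. That reading was taken as OD595, and the ratio was capped at 1. Single-drug fitness was inferred from the combination data. The Bliss score, observed fitness minus the expected product of single-drug fitness, was summarised as quartiles over technical, biological and donor/recipient replicates.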

S. aureus DSM 20231 = test: as above
In short: as §2

S. aureus Newman [5] = test: as above
In short: as §2

S. pneumoniae D39V [6] = test: as above
In short: as §2
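Wherever Bliss interaction score (quartile over a dose matrix) is given: first quartile when negative (synergy) and third quartile when positive (antagonism).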

O=C(O)c1cn(C2CC2)c2cc(N3CCNCC3)c(F)cc2c1=O [Ciprofloxacin] + Cc1cc(NS(=O)(=O)c2ccc(N)cc2)no1 [Sulfamethoxazol]
fitness, one replicate
Settings	first compound 0.0098 µg/mL	first compound 0.0195 µg/mL	first compound 0.039 µg/mL	first compound 0.078 µg/mL	first compound 0.156 µg/mL	first compound 0.312 µg/mL
B. subtilis 168 [1], partner 0.5 µg/mL	0.967	0.88	0.376	–	–	–
S. aureus Newman [2], partner 2 µg/mL	–	–	–	0.76	0.495	0.0936
S. aureus Newman [2], partner 4 µg/mL	–	–	–	0.764	0.475	0.0929
S. aureus Newman [2], partner 8 µg/mL	–	–	–	0.708	0.353	0.0905

fitness
Settings	partner 1 µg/mL	partner 2 µg/mL	partner 4 µg/mL
B. subtilis 168 [1], first compound 0.0098 µg/mL	0.89	0.858	0.913
B. subtilis 168 [1], first compound 0.0195 µg/mL	0.734	0.702	0.671
B. subtilis 168 [1], first compound 0.039 µg/mL	0.0972	0.132	0.0479
S. aureus Newman [2], first compound 0.0375 µg/mL	0.732	0.715	0.722
S. aureus Newman [2], first compound 0.075 µg/mL	0.623	–	0.643
S. aureus Newman [2], first compound 0.15 µg/mL	0.124	0.0895	0.0354
S. pneumoniae D39V [3], first compound 0.125 µg/mL	0.93	0.952	0.96
S. pneumoniae D39V [3], first compound 0.25 µg/mL	0.846	0.863	0.821

Settings	Bliss interaction score
B. subtilis 168 [4]	-0.0827
S. aureus DSM 20231	-0.0468
S. aureus Newman [5]	-0.0651
S. pneumoniae D39V [6]	0.0466

O=C(O)c1cn(C2CC2)c2cc(N3CCNCC3)c(F)cc2c1=O [Ciprofloxacin] + CN(C)c1cc(NC(=O)CNC(C)(C)C)c(O)c2c1C[C@H]1C[C@H]3[C@H](N(C)C)C(O)=C(C(N)=O)C(=O)[C@@]3(O)C(O)=C1C2=O [Tigecycline]
Settings	fitness
B. subtilis 168 [1], first compound 0.0098 µg/mL, partner 0.039 µg/mL	0.919
B. subtilis 168 [1], first compound 0.0098 µg/mL, partner 0.078 µg/mL	0.889
B. subtilis 168 [1], first compound 0.0098 µg/mL, partner 0.156 µg/mL	0.821
B. subtilis 168 [1], first compound 0.0195 µg/mL, partner 0.039 µg/mL	0.758
B. subtilis 168 [1], first compound 0.0195 µg/mL, partner 0.078 µg/mL	0.697
B. subtilis 168 [1], first compound 0.0195 µg/mL, partner 0.156 µg/mL	0.713
S. aureus Newman [2], first compound 0.0375 µg/mL, partner 0.078 µg/mL	0.735
S. aureus Newman [2], first compound 0.0375 µg/mL, partner 0.156 µg/mL	0.735
S. aureus Newman [2], first compound 0.075 µg/mL, partner 0.039 µg/mL	0.656
S. aureus Newman [2], first compound 0.075 µg/mL, partner 0.078 µg/mL	0.698
S. aureus Newman [2], first compound 0.075 µg/mL, partner 0.156 µg/mL	0.683
S. aureus Newman [2], first compound 0.15 µg/mL, partner 0.039 µg/mL	0.0882
S. aureus Newman [2], first compound 0.15 µg/mL, partner 0.078 µg/mL	0.045
S. aureus Newman [2], first compound 0.15 µg/mL, partner 0.156 µg/mL	0.07
S. pneumoniae D39V [3], first compound 0.125 µg/mL, partner 0.325 µg/mL	0.944
S. pneumoniae D39V [3], first compound 0.125 µg/mL, partner 0.65 µg/mL	0.895
S. pneumoniae D39V [3], first compound 0.125 µg/mL, partner 1.3 µg/mL	0.945
S. pneumoniae D39V [3], first compound 0.125 µg/mL, partner 2.6 µg/mL	0.856
S. pneumoniae D39V [3], first compound 0.25 µg/mL, partner 0.65 µg/mL	0.795
S. pneumoniae D39V [3], first compound 0.25 µg/mL, partner 1.3 µg/mL	0.83
S. pneumoniae D39V [3], first compound 0.25 µg/mL, partner 2.6 µg/mL	0.767
S. pneumoniae D39V [3], first compound 0.5 µg/mL, partner 2.6 µg/mL	0.588

fitness, one replicate
Settings	first compound 0.0098 µg/mL	first compound 0.0195 µg/mL	first compound 0.039 µg/mL	first compound 0.25 µg/mL
B. subtilis 168 [1], partner 0.125 µg/mL	≥ 1	0.964	0.709	–
B. subtilis 168 [1], partner 0.25 µg/mL	0.868	0.849	0.335	–
B. subtilis 168 [1], partner 0.5 µg/mL	0.901	0.828	0.313	–
S. pneumoniae D39V [3], partner 0.325 µg/mL	–	–	–	0.834

Settings	Bliss interaction score
B. subtilis 168 [4]	-0.0691
S. aureus DSM 20231	0.0365
S. aureus Newman [5]	-0.0448
S. pneumoniae D39V [6]	-0.0751

COc1cccc2c1C(=O)c1c(O)c3c(c(O)c1C2=O)C[C@@](O)(C(=O)CO)C[C@@H]3O[C@H]1C[C@H](N)[C@H](O)[C@H](C)O1 [Doxorubicin] + CN[C@@H]1[C@H](O[C@H]2[C@H](O[C@H]3[C@H](O)[C@@H](O)[C@H](N=C(N)N)[C@@H](O)[C@@H]3N=C(N)N)O[C@@H](C)[C@]2(O)C=O)O[C@@H](CO)[C@H](O)[C@H]1O [Streptomycin]
fitness
Settings	partner 1 µg/mL	partner 2 µg/mL	partner 4 µg/mL	partner 8 µg/mL
B. subtilis 168 [1], first compound 0.625 µg/mL	–	0.869	–	0.0284
B. subtilis 168 [1], first compound 1.25 µg/mL	–	–	–	0.0203
B. subtilis 168 [1], first compound 2.5 µg/mL	–	0.0556	0.0219	0.0198
S. aureus Newman [2], first compound 0.625 µg/mL	0.791	0.788	–	–
S. aureus Newman [2], first compound 1.25 µg/mL	0.769	0.746	–	–
S. aureus Newman [2], first compound 2.5 µg/mL	0.75	0.742	–	–
S. pneumoniae D39V [3], first compound 0.25 µg/mL	–	0.898	0.918	0.892
S. pneumoniae D39V [3], first compound 0.5 µg/mL	–	0.935	0.907	0.901
S. pneumoniae D39V [3], first compound 1 µg/mL	–	0.874	0.875	0.858

S. pneumoniae D39V [3], partner 16 µg/mL, one replicate
Settings	fitness
first compound 0.25 µg/mL	0.817
first compound 0.5 µg/mL	0.761
first compound 1 µg/mL	0.558

Settings	Bliss interaction score
B. subtilis 168 [4]	-0.355
S. aureus DSM 20231	-0.0832
S. aureus Newman [5]	-0.043
S. pneumoniae D39V [6]	0.0825

O=C(O)c1cn(C2CC2)c2cc(N3CCNCC3)c(F)cc2c1=O [Ciprofloxacin] + COc1c(N2C[C@@H]3CCCN[C@@H]3C2)c(F)cc2c(=O)c(C(=O)O)cn(C3CC3)c12 [Moxifloxacin]
Settings	fitness
B. subtilis 168 [1], first compound 0.0098 µg/mL, partner 0.0625 µg/mL	0.051
B. subtilis 168 [1], first compound 0.0098 µg/mL, partner 0.125 µg/mL	0.055
B. subtilis 168 [1], first compound 0.0098 µg/mL, partner 2 µg/mL	0.0402
B. subtilis 168 [1], first compound 0.0098 µg/mL, partner 4 µg/mL	0.0314
B. subtilis 168 [1], first compound 0.0098 µg/mL, partner 8 µg/mL	0.0305
B. subtilis 168 [1], first compound 0.0195 µg/mL, partner 0.0312 µg/mL	0.0426
B. subtilis 168 [1], first compound 0.0195 µg/mL, partner 0.0625 µg/mL	0.0567
B. subtilis 168 [1], first compound 0.0195 µg/mL, partner 0.125 µg/mL	0.0402
B. subtilis 168 [1], first compound 0.0195 µg/mL, partner 2 µg/mL	0.0358
B. subtilis 168 [1], first compound 0.0195 µg/mL, partner 4 µg/mL	0.027
B. subtilis 168 [1], first compound 0.0195 µg/mL, partner 8 µg/mL	0.0243
B. subtilis 168 [1], first compound 0.039 µg/mL, partner 0.0312 µg/mL	0.0379
B. subtilis 168 [1], first compound 0.039 µg/mL, partner 0.0625 µg/mL	0.0522
B. subtilis 168 [1], first compound 0.039 µg/mL, partner 0.125 µg/mL	0.0269
B. subtilis 168 [1], first compound 0.039 µg/mL, partner 2 µg/mL	0.038
B. subtilis 168 [1], first compound 0.039 µg/mL, partner 4 µg/mL	0.0353
B. subtilis 168 [1], first compound 0.039 µg/mL, partner 8 µg/mL	0.0328
S. aureus Newman [2], first compound 0.0375 µg/mL, partner 0.0075 µg/mL	0.579
S. aureus Newman [2], first compound 0.0375 µg/mL, partner 0.015 µg/mL	0.414
S. aureus Newman [2], first compound 0.0375 µg/mL, partner 0.03 µg/mL	0.0123
S. aureus Newman [2], first compound 0.075 µg/mL, partner 0.0075 µg/mL	0.322
S. aureus Newman [2], first compound 0.075 µg/mL, partner 0.015 µg/mL	0.0421
S. aureus Newman [2], first compound 0.075 µg/mL, partner 0.03 µg/mL	0.0176
S. aureus Newman [2], first compound 0.15 µg/mL, partner 0.0075 µg/mL	0.0344
S. aureus Newman [2], first compound 0.15 µg/mL, partner 0.015 µg/mL	0.03
S. aureus Newman [2], first compound 0.15 µg/mL, partner 0.03 µg/mL	0.0119
S. pneumoniae D39V [3], first compound 0.125 µg/mL, partner 0.005 µg/mL	0.944
S. pneumoniae D39V [3], first compound 0.125 µg/mL, partner 0.01 µg/mL	0.944
S. pneumoniae D39V [3], first compound 0.125 µg/mL, partner 0.02 µg/mL	0.882
S. pneumoniae D39V [3], first compound 0.125 µg/mL, partner 0.0312 µg/mL	0.0716
S. pneumoniae D39V [3], first compound 0.125 µg/mL, partner 0.0625 µg/mL	0.0294
S. pneumoniae D39V [3], first compound 0.125 µg/mL, partner 0.125 µg/mL	0.0127
S. pneumoniae D39V [3], first compound 0.25 µg/mL, partner 0.005 µg/mL	0.887
S. pneumoniae D39V [3], first compound 0.25 µg/mL, partner 0.01 µg/mL	0.892
S. pneumoniae D39V [3], first compound 0.25 µg/mL, partner 0.02 µg/mL	0.812
S. pneumoniae D39V [3], first compound 0.5 µg/mL, partner 0.005 µg/mL	0.686
S. pneumoniae D39V [3], first compound 0.5 µg/mL, partner 0.01 µg/mL	0.692
S. pneumoniae D39V [3], first compound 0.5 µg/mL, partner 0.02 µg/mL	0.628
S. pneumoniae D39V [3], first compound 0.5 µg/mL, partner 0.0312 µg/mL	0.0441
S. pneumoniae D39V [3], first compound 0.5 µg/mL, partner 0.0625 µg/mL	0.0537
S. pneumoniae D39V [3], first compound 0.5 µg/mL, partner 0.125 µg/mL	0.0249

S. pneumoniae D39V [3], first compound 0.25 µg/mL, one replicate
Settings	fitness
partner 0.0312 µg/mL	0.0113
partner 0.0625 µg/mL	0.0007
partner 0.125 µg/mL	0

Settings	Bliss interaction score
B. subtilis 168 [4]	0.026
S. aureus DSM 20231	-0.117
S. aureus Newman [5]	-0.2
S. pneumoniae D39V [6]	-0.0855
